Molecules are shown by their SMILES.

The assay has as its system C2C12 cells. The assay is described as follows: Introduction of low-molecular-weight compound (FITC) into skeletal muscle cell. Type of assay: cell-based. How it is done: C2C12 cells (3×10^4 cells, 0.5 mL) in 10% FBS-containing DMEM medium were seeded in 48 wells. After removing the medium, 0.5 ml of ultrafine bubble/DMEM medium containing 0.38 μg of FITC was added. An ultrafine bubble/DMEM medium prepared by adding 1 L of the ultrafine bubble aqueous solution prepared in Reference Example 1 to a DMEM medium powder, and adding 2 g/L NaHCO3 and 10% FBS was used as a transfection medium.
After adding the FITC-containing medium, ultrasound exposure was performed for 10 sec at a frequency of 1 MHz and output intensities of 100, 250, 500 mW/cm^2 and using an ultrasound generator (NEPAGENE). After ultrasound exposure, the cells were cultured for 2 hr, then the transfection medium was removed, and the cells were cultured in DMEM medium (culture medium) for 48 hr.
After completion of the culture, the cells were collected, completely lysed with 0.5 mL of cell lysis solution, and the fluorescent intensity of FITC was measured with a spectrofluoro-photometer. The amount of FITC uptake was evaluated as a relative amount by proportional calculation with the measured value of Control (ultrafine bubbles alone) as 1.

Consider `O=C1OC2(c3ccc(O)cc3Oc3cc(O)ccc32)c2ccc(N=C=S)cc21` [FITC], for which, under “ultrafine bubbles (negatively-charged, C3F8) combined with ultrasound 1 MHz, 10 sec, C2C12, 0.38 μg FITC”, the “introduction efficiency of FITC into the cell” value is recorded as “remarkably increased”. For the same compound, the “introduction efficiency of FITC” value by setting is: (ultrafine bubbles + ultrasound 100 mW/cm^2) “increasing tendency was observed”; (ultrafine bubbles + ultrasound 250 mW/cm^2) “particularly superior introduction efficiency”; (ultrafine bubbles + ultrasound 250 or 500 mW/cm^2) “increased significantly”.

The values are drawn from patent publication US20220249665A1, “TRANSFECTION METHOD” (Takeda Pharmaceutical Company Limited, priority 2019, published 2022).
